Measured values published in PubChem BioAssay (NCI).
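96-well plates; 48 h exposure; 5 concentrations. Endpoints by linear interpolation between flanking doses. Not reached: highest tested concentration assigned. TGI: concentration producing complete growth inhibition.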

What was measured:
Assay in all cases: inhibition of tumour cell growth, NCI panel, 48 h
COLO 205 colon = system: COLO 205 colon
UO-31 renal = system: UO-31 renal
OVCAR-3 ovarian = system: OVCAR-3 ovarian
DLD-1 colon = system: DLD-1 colon
SK-OV-3 ovarian = system: SK-OV-3 ovarian
NCI-H226 lung = system: NCI-H226 lung
SK-MEL-28 melanoma = system: SK-MEL-28 melanoma
KM20L2 colon = system: KM20L2 colon
M19-MEL melanoma = system: M19-MEL melanoma
SNB-78 CNS = system: SNB-78 CNS
XF 498 CNS = system: XF 498 CNS
HCT-116 colon = system: HCT-116 colon
SNB-19 CNS = system: SNB-19 CNS
DMS 114 small cell lung = system: DMS 114 small cell lung
786-0 renal = system: 786-0 renal
RXF-631 renal = system: RXF-631 renal
UACC-257 melanoma = system: UACC-257 melanoma
EKVX NSCLC = system: EKVX NSCLC
TK-10 renal = system: TK-10 renal
SW-620 colon = system: SW-620 colon
OVCAR-5 ovarian = system: OVCAR-5 ovarian
NCI-H460 lung = system: NCI-H460 lung
RXF 393 renal = system: RXF 393 renal
A498 renal = system: A498 renal
OVCAR-8 ovarian = system: OVCAR-8 ovarian
SF-539 CNS = system: SF-539 CNS
U251 CNS = system: U251 CNS
ACHN renal = system: ACHN renal
SN12C renal = system: SN12C renal
HCC-2998 colon = system: HCC-2998 colon
IGROV1 ovarian = system: IGROV1 ovarian
RPMI-8226 leukemia = system: RPMI-8226 leukemia
LXFL 529 NSCLC = system: LXFL 529 NSCLC
KM12 colon = system: KM12 colon
K-562 leukemia = system: K-562 leukemia
HT29 colon = system: HT29 colon
MOLT-4 leukemia = system: MOLT-4 leukemia
SK-MEL-2 melanoma = system: SK-MEL-2 melanoma
CCRF-CEM leukemia = system: CCRF-CEM leukemia
MALME-3M melanoma = system: MALME-3M melanoma
HCT-15 colon = system: HCT-15 colon
M14 melanoma = system: M14 melanoma
HL-60(TB) leukemia = system: HL-60(TB) leukemia
HOP-18 NSCLC = system: HOP-18 NSCLC
SF-295 CNS = system: SF-295 CNS
SNB-75 CNS = system: SNB-75 CNS
HOP-92 NSCLC = system: HOP-92 NSCLC
LOX IMVI melanoma = system: LOX IMVI melanoma
OVCAR-4 ovarian = system: OVCAR-4 ovarian
UACC-62 melanoma = system: UACC-62 melanoma
NCI-H23 lung = system: NCI-H23 lung
NCI-H522 lung = system: NCI-H522 lung
HOP-62 NSCLC = system: HOP-62 NSCLC
SF-268 CNS = system: SF-268 CNS
A549 NSCLC = system: A549 NSCLC
DMS 273 small cell lung = system: DMS 273 small cell lung
SK-MEL-5 melanoma = system: SK-MEL-5 melanoma
CAKI-1 renal = system: CAKI-1 renal

SMILES: CC1=C(C(=O)Nc2ccc([N+](=O)[O-])cc2)C(c2cccc([N+](=O)[O-])c2)C(C(=O)Nc2ccc([N+](=O)[O-])cc2)=C(C)N1
- TGI (COLO 205 colon): > 100 µM
- TGI (UO-31 renal): > 100 µM
- TGI (OVCAR-3 ovarian): > 100 µM
- TGI (DLD-1 colon): > 100 µM
- TGI (SK-OV-3 ovarian): 71.6 µM
- TGI (NCI-H226 lung): > 100 µM
- TGI (SK-MEL-28 melanoma): > 100 µM
- TGI (KM20L2 colon): > 100 µM
- TGI (M19-MEL melanoma): > 100 µM
- TGI (SNB-78 CNS): > 100 µM
- TGI (XF 498 CNS): 41.3 µM
- TGI (HCT-116 colon): > 100 µM
- TGI (SNB-19 CNS): > 100 µM
- TGI (DMS 114 small cell lung): > 100 µM
- TGI (786-0 renal): > 100 µM
- TGI (RXF-631 renal): > 100 µM
- TGI (UACC-257 melanoma): 56.1 µM
- TGI (EKVX NSCLC): > 100 µM
- TGI (TK-10 renal): > 100 µM
- TGI (SW-620 colon): > 100 µM
- TGI (OVCAR-5 ovarian): > 100 µM
- TGI (NCI-H460 lung): > 100 µM
- TGI (RXF 393 renal): > 100 µM
- TGI (A498 renal): > 100 µM
- TGI (OVCAR-8 ovarian): > 100 µM
- TGI (SF-539 CNS): > 100 µM
- TGI (U251 CNS): > 100 µM
- TGI (ACHN renal): > 100 µM
- TGI (SN12C renal): > 100 µM
- TGI (HCC-2998 colon): > 100 µM
- TGI (IGROV1 ovarian): > 100 µM
- TGI (RPMI-8226 leukemia): > 100 µM
- TGI (LXFL 529 NSCLC): > 100 µM
- TGI (KM12 colon): > 100 µM
- TGI (K-562 leukemia): > 100 µM
- TGI (HT29 colon): > 100 µM
- TGI (MOLT-4 leukemia): > 100 µM
- TGI (SK-MEL-2 melanoma): > 100 µM
- TGI (CCRF-CEM leukemia): > 100 µM
- TGI (MALME-3M melanoma): > 100 µM
- TGI (HCT-15 colon): > 100 µM
- TGI (M14 melanoma): > 100 µM
- TGI (HL-60(TB) leukemia): > 100 µM
- TGI (HOP-18 NSCLC): > 100 µM
- TGI (SF-295 CNS): > 100 µM
- TGI (SNB-75 CNS): > 100 µM
- TGI (HOP-92 NSCLC): 39 µM
- TGI (LOX IMVI melanoma): > 100 µM
- TGI (OVCAR-4 ovarian): > 100 µM
- TGI (UACC-62 melanoma): > 100 µM
- TGI (NCI-H23 lung): 66.4 µM
- TGI (NCI-H522 lung): > 100 µM
- TGI (HOP-62 NSCLC): > 100 µM
- TGI (SF-268 CNS): > 100 µM
- TGI (A549 NSCLC): > 100 µM

SMILES: COc1ccc2c(c1)C1C(CO2)C(c2ccccc2)=NN1c1ccccc1 (centres undefined)
- TGI (COLO 205 colon): > 100 µM
- TGI (UO-31 renal): > 100 µM
- TGI (OVCAR-3 ovarian): > 100 µM
- TGI (DLD-1 colon): > 100 µM
- TGI (SK-OV-3 ovarian): > 100 µM
- TGI (SK-MEL-28 melanoma): > 100 µM
- TGI (KM20L2 colon): > 100 µM
- TGI (M19-MEL melanoma): > 100 µM
- TGI (SNB-78 CNS): > 100 µM
- TGI (XF 498 CNS): > 100 µM
- TGI (HCT-116 colon): > 100 µM
- TGI (DMS 114 small cell lung): > 100 µM
- TGI (786-0 renal): > 100 µM
- TGI (RXF-631 renal): > 100 µM
- TGI (UACC-257 melanoma): > 100 µM
- TGI (EKVX NSCLC): > 100 µM
- TGI (TK-10 renal): > 100 µM
- TGI (SW-620 colon): > 100 µM
- TGI (OVCAR-5 ovarian): > 100 µM
- TGI (NCI-H460 lung): > 100 µM
- TGI (RXF 393 renal): > 100 µM
- TGI (A498 renal): > 100 µM
- TGI (OVCAR-8 ovarian): > 100 µM
- TGI (SF-539 CNS): > 100 µM
- TGI (U251 CNS): > 100 µM
- TGI (ACHN renal): > 100 µM
- TGI (HCC-2998 colon): > 100 µM
- TGI (IGROV1 ovarian): > 100 µM
- TGI (RPMI-8226 leukemia): > 100 µM
- TGI (LXFL 529 NSCLC): > 100 µM
- TGI (KM12 colon): > 100 µM
- TGI (K-562 leukemia): > 100 µM
- TGI (HT29 colon): > 100 µM
- TGI (MOLT-4 leukemia): > 100 µM
- TGI (SK-MEL-2 melanoma): > 100 µM
- TGI (CCRF-CEM leukemia): > 100 µM
- TGI (MALME-3M melanoma): > 100 µM
- TGI (DMS 273 small cell lung): > 100 µM
- TGI (HL-60(TB) leukemia): > 100 µM
- TGI (HOP-18 NSCLC): > 100 µM
- TGI (SF-295 CNS): > 100 µM
- TGI (SK-MEL-5 melanoma): > 100 µM
- TGI (SNB-75 CNS): 9.67 µM
- TGI (HOP-92 NSCLC): > 100 µM
- TGI (LOX IMVI melanoma): > 100 µM
- TGI (NCI-H23 lung): > 100 µM
- TGI (NCI-H522 lung): > 100 µM
- TGI (HOP-62 NSCLC): > 100 µM
- TGI (SF-268 CNS): > 100 µM
- TGI (A549 NSCLC): > 100 µM

SMILES: Sc1ccccc1S
- TGI (COLO 205 colon): > 100 µM
- TGI (UO-31 renal): > 10 µM
- TGI (OVCAR-3 ovarian): > 100 µM
- TGI (DLD-1 colon): > 100 µM
- TGI (SK-OV-3 ovarian): > 100 µM
- TGI (SK-MEL-28 melanoma): > 100 µM
- TGI (KM20L2 colon): > 100 µM
- TGI (M19-MEL melanoma): > 100 µM
- TGI (SNB-78 CNS): > 100 µM
- TGI (XF 498 CNS): > 100 µM
- TGI (SNB-19 CNS): > 100 µM
- TGI (DMS 114 small cell lung): > 100 µM
- TGI (786-0 renal): > 100 µM
- TGI (RXF-631 renal): > 100 µM
- TGI (EKVX NSCLC): > 10 µM
- TGI (TK-10 renal): > 10 µM
- TGI (SW-620 colon): > 100 µM
- TGI (NCI-H460 lung): > 100 µM
- TGI (RXF 393 renal): > 100 µM
- TGI (OVCAR-8 ovarian): > 10 µM
- TGI (U251 CNS): > 100 µM
- TGI (ACHN renal): > 100 µM
- TGI (SN12C renal): > 100 µM
- TGI (HCC-2998 colon): > 100 µM
- TGI (IGROV1 ovarian): > 100 µM
- TGI (LXFL 529 NSCLC): > 100 µM
- TGI (CAKI-1 renal): > 100 µM
- TGI (K-562 leukemia): > 100 µM
- TGI (HT29 colon): > 100 µM
- TGI (MALME-3M melanoma): > 100 µM
- TGI (HCT-15 colon): > 100 µM
- TGI (M14 melanoma): > 100 µM
- TGI (DMS 273 small cell lung): > 100 µM
- TGI (HL-60(TB) leukemia): > 100 µM
- TGI (HOP-18 NSCLC): > 100 µM
- TGI (SF-295 CNS): > 100 µM
- TGI (HOP-92 NSCLC): > 100 µM
- TGI (LOX IMVI melanoma): > 100 µM
- TGI (OVCAR-4 ovarian): > 100 µM
- TGI (UACC-62 melanoma): > 100 µM
- TGI (NCI-H23 lung): > 100 µM
- TGI (HOP-62 NSCLC): > 100 µM
- TGI (SF-268 CNS): > 100 µM
- TGI (A549 NSCLC): > 100 µM
